The source made the active and inactive calls. The calls are words filed in the database; no cut-off is given here.
Columns and labels:
Rattus norvegicus [1] = assay: Uterotrophic activity in spayed Wistar rat assessed as autopsies by measuring uterus weight at 0.1 umol, po after 2 weeks (reference value: 15.9 +/- 0.50 mg); format: functional
Rattus norvegicus [2] = assay: Uterotrophic activity in spayed Wistar rat assessed as autopsies by measuring uterus weight at 0.1 umol, po after 1 week (reference value: 15.1 +/- 0.51 mg); format: functional

SMILES	Activity (Rattus norvegicus [1])	Activity (Rattus norvegicus [2])
C[C@]12CC[C@@H]3c4ccc(O)cc4CC[C@H]3[C@@H]1CC[C@@H]2OC1=CC2=CC[C@@H]3[C@H](CC[C@]4(C)C(=O)CC[C@@H]34)[C@@]2(C)CC1	38.9 mg	56.9 mg
C#C[C@]1(OC(C)=O)CC[C@H]2[C@@H]3CC=C4C=C(O[C@H]5CC[C@H]6[C@@H]7CCc8cc(O)ccc8[C@H]7CC[C@]56C)CC[C@@H]4[C@H]3CC[C@@]21C	26.7 mg	38.1 mg
C#C[C@]1(OC(C)=O)CC[C@H]2[C@@H]3CC=C4C=C(O[C@H]5CC[C@H]6[C@@H]7CCc8cc(OC(=O)CCC)ccc8[C@H]7CC[C@]56C)CC[C@@H]4[C@H]3CC[C@@]21C	18.3 mg	26.5 mg
CC(=O)[C@@H]1CC[C@H]2[C@@H]3CC=C4C=C(O[C@H]5CC[C@H]6[C@@H]7CCc8cc(OC(=O)c9ccccc9)ccc8[C@H]7CC[C@]56C)CC[C@@H]4[C@H]3CC[C@]12C	inactive	inactive
C[C@]12CC[C@@H]3c4ccc(O)cc4CC[C@H]3[C@@H]1CC[C@@H]2OC1=CC2=CC[C@H]3[C@@H]4CC[C@H](O)[C@@]4(C)CC[C@@H]3[C@@]2(C)CC1	36.8 mg	50.2 mg
CCC(=O)O[C@H]1CC[C@H]2[C@@H]3CC[C@H]4CC(O[C@H]5CC[C@H]6[C@@H]7CCc8cc(OC(=O)c9ccccc9)ccc8[C@H]7CC[C@]56C)CC[C@]4(C)[C@H]3CC[C@]12C (some centres not stated)	inactive	inactive
CC(=O)O[C@]1(C(C)=O)CC[C@H]2[C@@H]3CC=C4C=C(O[C@H]5CC[C@H]6[C@@H]7CCc8cc(OC(=O)c9ccccc9)ccc8[C@H]7CC[C@]56C)CC[C@]4(C)[C@H]3CC[C@@]21C	23.3 mg	27.5 mg
C#C[C@]1(OC(C)=O)CC[C@H]2[C@@H]3CC=C4C=C(O[C@H]5CC[C@H]6[C@@H]7CCc8cc(OC9CCCC9)ccc8[C@H]7CC[C@]56C)CC[C@@H]4[C@H]3CC[C@@]21C		17.9 mg
CC(=O)O[C@H]1CC[C@H]2[C@@H]3CC[C@H]4C=C(O[C@H]5CC[C@H]6[C@@H]7CCc8cc(OC(=O)c9ccccc9)ccc8[C@H]7CC[C@]56C)C=C[C@]4(C)[C@H]3CC[C@]12C	20.1 mg	21.3 mg
C#C[C@]1(OC(C)=O)CC[C@H]2[C@@H]3CC=C4C=C(O[C@H]5CC[C@H]6[C@@H]7CCc8cc(OC(C)OCC)ccc8[C@H]7CC[C@]56C)CC[C@@H]4[C@H]3CC[C@@]21C (some centres not stated)	19.3 mg	30.3 mg
C[C@]12CC[C@@H]3c4ccc(OC5CCCC5)cc4CC[C@H]3[C@@H]1CC[C@@H]2OC1=CC2=CC[C@@H]3[C@H](CC[C@]4(C)C(=O)CC[C@@H]34)[C@H]2CC1	26.2 mg	29.1 mg
C[C@]12CCC(O[C@H]3CC[C@H]4[C@@H]5CCc6cc(O)ccc6[C@H]5CC[C@]34C)C[C@H]1CC[C@@H]1[C@@H]2CC[C@]2(C)[C@@H](O)CC[C@@H]12 (some centres not stated)	inactive	inactive
CC(=O)O[C@@]1(C)CC[C@H]2[C@@H]3CC=C4C=C(O[C@H]5CC[C@H]6[C@@H]7CCc8cc(OC(=O)c9ccccc9)ccc8[C@H]7CC[C@]56C)CC[C@]4(C)[C@H]3CC[C@@]21C	21.5 mg	26.4 mg
C#C[C@@]1(OC(C)=O)CC[C@H]2[C@@H]3CC=C4C=C(O[C@H]5CC[C@H]6[C@@H]7CCc8cc(OC(=O)c9ccccc9)ccc8[C@H]7CC[C@]56C)CC[C@@H]4[C@H]3CC[C@@]21C	inactive	inactive
